Assay results taken from patent US12220410B2, “Antitumor composition” (priority 2019, dated 2025).
Like-named read-outs stand apart in the source and are kept apart here.

Key:
[1] = test system: human follicular lymphoma cell line DOHH-2; test: In vitro cell growth inhibition test (CellTiter-Fluor), DOHH-2; format: cell-based; conditions: DOHH-2
[2] = test system: human diffuse large B-cell lymphoma (DLBCL) cell line OCI-Ly7; test: In vitro cell growth inhibition test, OCI-Ly7 (cell viability, combination index); format: cell-based; conditions: bendamustine 0 nM
[3] = test system: human diffuse large B-cell lymphoma cell line OCI-Ly7; format: in vivo; conditions: for Tumor growth delay / Tumor growth delay rate: relative tumor volume 1600%
[4] = test system: human breast cancer cell line MDA-MB-453; test: In vivo antitumor effect test, MDA-MB-453 tumor, compound A and lapatinib (Example 37); set-up: species or system NOD-SCID mice; conditions: for Tumor growth delay / Tumor growth delay rate: relative tumor volume 200%
Description: The tumor volume was calculated from tumor diameters by the following formula: (Long diameter×[Short diameter]^2×0.5). Using the calculated tumor volume value, the relative tumor volume (ratio of the tumor volume on the day of measurement to the baseline tumor volume on Day 1) was calculated. […] Further, the tumor growth delay rate (% TGD) was calculated according to the following formula: % TGD={(T−C)/C}×100, Where: • T: […] relative tumor volume of the control group to reach 1600% 6) Statistical Analysis
Compound A was suspended in a 1% hypromellose solution to prepare 20 mg/mL test substance suspensions (a suspension for preparing a single administration solution and a suspension for preparing a 100 mg/kg combined administration solution). The 20 mg/mL test substance suspensions were diluted with a 1% hypromellose solution to prepare 10 mg/mL (100 mg/kg administration solution), 6 mg/mL (suspension for preparing a 30 mg/kg combined administration solution), and 3 mg/mL (30 mg/kg administration solution) test substance suspensions. Lapatinib was suspended in a 1% hypromellose solution to prepare a 20 mg/mL suspension for preparing a 100 mg/kg lapatinib combined administration solution. The 20 mg/mL suspension was diluted with a 1% hypromellose solution to prepare a 10 mg/mL suspension for 100 mg/kg single administration. The administration solution of the combination group was prepared by mixing the 6 mg/mL compound A suspension and the 20 mg/mL lapatinib suspension at 1:1, or mixing the 20 mg/mL compound A suspension and the 20 mg/mL lapatinib suspension at 1:1.
MDA-MB-453 was obtained from ATCC. […] The collected cells were suspended in serum-free RPMI 1640 medium at 1.0×10^8 cells/mL.
5-week-old female NOD-SCID mice (NOD.CB17-Prkdcscid/J, produced by Charles River Japan Co., Ltd.) were used. The female NOD-SCID mice were bred in the same manner as in Example 36. The cell suspension was inoculated at 2×10^7 cells/body into the subcutaneous space of the right axillary region of the 6-week-old NOD-SCID mice, and the mice were grouped in the same manner as in Example 36 using the tumor volume as an index.
The administration was started on the next day of the grouping (Day 2), and compound A and lapatinib were orally administered once a day for 28 consecutive days. Each group (N=8) was treated as follows. • (1) Control (solvent control) group: 1% hypromellose solution • (2) Compound A (30 mg/kg) treated group: 30 mg/kg of compound A (oral administration once a day for 28 consecutive days) • (3) Compound A (100 mg/kg) treated group: 100 mg/kg of compound A (oral administration once a day for 28 consecutive days) • (4) Lapatinib (100 mg/kg) treated group: 100 mg/kg of lapatinib (oral administration once a day for 28 consecutive days) • (5) Combination group 1: 30 mg/kg of compound A (oral administration once a day for 28 consecutive days)+100 mg/kg of lapatinib (oral administration once a day for 28 consecutive days) • (6) Combination group 2: 100 mg/kg of compound A (oral administration once a day for 28 consecutive days)+100 mg/kg of lapatinib (oral administration once a day for 28 consecutive days)

[5] = test system: human diffuse large B-cell lymphoma cell line OCI-Ly7; format: in vivo
[6] = test system: human diffuse large B-cell lymphoma cell line OCI-Ly7; format: in vivo; remark: listed apart in the source
[7] = test system: human acute myelogenous leukemia (AML) cell line KG-1; format: in vivo
[8] = test system: human acute myelogenous leukemia (AML) cell line KG-1; format: in vivo; remark: listed apart in the source
[9] = test system: human diffuse large B-cell lymphoma cell line OCI-Ly7; set-up: species or system SCID mice; conditions: mouse, in vivo
[10] = test system: human acute myelogenous leukemia (AML) cell line KG-1; format: in vivo; remark: listed apart in the source
[11] = compound A 10 mg/kg orally once a day for 14 days
[12] = compound A 30 mg/kg orally once a day for 14 days
[13] = compound A 100 mg/kg orally once a day for 14 days
[14] = compound A 30 mg/kg orally once a day for 28 days
[15] = compound A 100 mg/kg orally once a day for 28 days
[16] = compound A 30 mg/kg orally once a day for 21 days, relative tumor volume 600%

CNc1ccc(Oc2ccc(NC(=O)c3ccc(C(F)(F)F)cc3)cn2)c(C)c1.Cl [Compound A, N-{6-[2-methyl-4-(methylamino)phenoxy]pyridin-3-yl}-4-(trifluoromethyl)benzamide hydrochloride]
FIC (fractional inhibitory concentration) ([1]; bendamustine fixed at 0 nM, compound A at its IC50): 1
FIC (fractional inhibitory concentration) ([1]; bendamustine fixed at 1250 nM, compound A at its IC50): 0.595
FIC (fractional inhibitory concentration) ([1]; bendamustine fixed at 2500 nM, compound A at its IC50): 0.258
FIC (fractional inhibitory concentration) ([1]; bendamustine fixed at 5000 nM, compound A at its IC50): 0.123
FIC (fractional inhibitory concentration) ([1]; compound A fixed at 0 nM, bendamustine at its IC50): 0
FIC (fractional inhibitory concentration) ([1]; compound A fixed at 39.1 nM, bendamustine at its IC50): 0.103
FIC (fractional inhibitory concentration) ([1]; compound A fixed at 78.1 nM, bendamustine at its IC50): 0.205
FIC (fractional inhibitory concentration) ([1]; compound A fixed at 156.3 nM, bendamustine at its IC50): 0.410
FIC (fractional inhibitory concentration) ([1]; compound A fixed at 312.5 nM, bendamustine at its IC50): 0.820
Cell viability (ratio relative to the drug-free control) ([2]; compound A 0.25 nM, OCI-Ly7, 8000 cells/well): 0.79
Cell viability (ratio relative to the drug-free control) ([2]; compound A 0.5 nM, OCI-Ly7): 0.76
Cell viability (ratio relative to the drug-free control) ([2]; compound A 1 nM, OCI-Ly7): 0.61
Cell viability (ratio relative to the drug-free control) ([2]; compound A 2 nM, OCI-Ly7): 0.50
effectiveness of monotherapy (tumor growth delay) ([3]; 30 or 100 mg/kg of compound A, 50 mg/kg of cyclophosphamide): effective
Median Time (time for relative tumor volume to reach 1600%) [3, 11]: 13.2 days
Tumor growth delay [3, 11]: 0.5 days
Tumor growth delay rate [3, 11]: 3.5%
Median Time (time for relative tumor volume to reach 1600%) [3, 12]: 23.0 days
Tumor growth delay [3, 12]: 10.3 days
Median Time (time for relative tumor volume to reach 1600%) [3, 13]: 31.5 days
Tumor growth delay [3, 13]: 18.8 days
Tumor growth delay rate [3, 13]: 147.6%
effectiveness of monotherapy (tumor growth delay) ([4]; 30 or 100 mg/kg of compound A, 100 mg/kg of lapatinib): effective
Median Time (time for relative tumor volume to reach 200%) [4, 14]: 39.3 days
Tumor growth delay [4, 14]: 16.5 days
Tumor growth delay rate [4, 14]: 72.4%
Median Time (time for relative tumor volume to reach 200%) [4, 15]: >99.0 days
Tumor growth delay [4, 15]: >76.2 days
Tumor growth delay rate ([4]; compound A 100 mg/kg orally once a day for 28 days, hydrochloride, 100 mg/kg): >334.2%
Tumor growth delay rate ([4]; compound A 100 mg/kg orally once a day for 28 days, listed as compound A, hydrochloride, 100 mg/kg): > 334.2%
effectiveness of monotherapy (tumor growth delay) ([5]; 30 mg/kg of compound A, 15 mg/kg of bendamustine): effective
Median Time (time for relative tumor volume to reach 1600%) [5, 12]: 23.9 days
Tumor growth delay ([5]; compound A 30 mg/kg orally once a day for 14 days, relative tumor volume 1600%): 8.4 days
effectiveness of monotherapy (tumor growth delay) ([6]; 30 mg/kg of compound A, 10 mg/kg of rituximab): effective
Median Time (time for relative tumor volume to reach 600%) ([6]; compound A 30 mg/kg orally once a day for 21 days): 28.4 days
Tumor growth delay [6, 16]: 12.1 days
Tumor growth delay rate [6, 16]: 73.9%
antitumor effect on KG-1 tumor (monotherapy) ([7]; compound A 30 mg/kg, decitabine 1 mg/kg): antitumor effect
T/C (ratio of relative tumor volume of treated group to control group) ([7]; compound A monotherapy 30 mg/kg orally, daily, 21 days, Day 23): 45.2%
antitumor effect on KG-1 tumor (monotherapy) ([8]; compound A 30 mg/kg, cytarabine 50 mg/kg): antitumor effect
T/C (ratio of relative tumor volume of treated group to control group) ([8]; compound A monotherapy 30 mg/kg orally, daily, 14 days, Day 16): 52.0%
effectiveness (tumor growth delay) [9]: effective
Median Time (time for relative tumor volume to reach 800%) ([9]; po, 30 mg/kg): 18.2 days
Tumor growth delay ([9]; po, 30 mg/kg): 8.3 days
Tumor growth delay rate ([9]; po, 30 mg/kg): 83.8%
antitumor effect on KG-1 tumor ([10]; compound A 50 mg/kg, venetoclax 50 mg/kg + decitabine 1 mg/kg): antitumor effect
T/C (ratio of relative tumor volume of treated group to control group) ([10]; compound A single administration 50 mg/kg orally, daily, 14 days, Day 16): 29.2%
